Experimental data reported in patent publication US9180128B2, “Stable pharmaceutical compositions of 5,10-methylene tetrahydrofolate” (MERCK & CIE, priority 2003, dated 2015).
Where two headings read alike, the source gives them in different places.

Assays:
[1] = Storage stability of untreated reference sample; assay type: physicochemical; settings: storage at +25° C
[2] = physiological common salt solution, +25° C, cited from earlier work

SMILES | % relative stability ([1]; 0 months) [%] | % relative stability ([1]; 0.5 months) [%] | % relative stability ([1]; 1.0 months) [%] | % relative stability ([1]; 1.75 months) [%] | % relative stability ([1]; 2.5 months) [%] | % relative stability ([1]; 4.5 months) [%] | % relative stability ([1]; 9.2 months) [%] | % relative stability ([1]; 19.0 months) [%] | % relative stability ([2]; with the exclusion of air, 0 hours) [%] | % relative stability ([2]; with the exclusion of air, 4.0 hours) [%] | % relative stability ([2]; with the exclusion of air, 24.0 hours) [%] | % relative stability ([2]; with the exclusion of air, 26.0 hours) [%] | % relative stability ([2]; with the exclusion of air, 48.0 hours) [%] | % relative stability ([2]; without the exclusion of air, 0 hours) [%] | % relative stability ([2]; without the exclusion of air, 4.0 hours) [%] | % relative stability ([2]; without the exclusion of air, 24.0 hours) [%] | % relative stability ([2]; without the exclusion of air, 26.0 hours) [%] | % relative stability ([2]; without the exclusion of air, 48.0 hours) [%]
Nc1nc2c(c(=O)[nH]1)N1CN(c3ccc(C(=O)N[C@@H](CCC(=O)[O-])C(=O)O)cc3)C[C@H]1CN2.Nc1nc2c(c(=O)[nH]1)N1CN(c3ccc(C(=O)N[C@@H](CCC(=O)[O-])C(=O)O)cc3)C[C@H]1CN2.[Ca+2] [Co 751, calcium salt of 5,10-methylene-(6R)-tetrahydrofolic acid] | 100.0 | 92.3 | 83.4 | 77.2 | 71.9 | 61.5 | 49.1 | 43.0 | – | – | – | – | – | – | – | – | – | –
Nc1nc2c(c(=O)[nH]1)N1CN(c3ccc(C(=O)N[C@@H](CCC(=O)[O-])C(=O)O)cc3)C[C@H]1CN2.Nc1nc2c(c(=O)[nH]1)N1CN(c3ccc(C(=O)N[C@@H](CCC(=O)[O-])C(=O)O)cc3)C[C@H]1CN2.[Ca+2] [calcium salt of 5,10-methylene-(6R,S)-tetrahydrofolic acid] | – | – | – | – | – | – | – | – | 100.0 | 58.0 | 38.0 | 18.0 | 8.0 | 100.0 | 84 | 12.0 | 8.0 | 6.0
